pIC50: −log10 of the molar value.

Experiment [1] has as its target Tyrosine-protein kinase JAK2 (Homo sapiens, UniProt O60674). The experiment is described as follows: Inhibition of human JAK2 (808 to end residues) assessed as residual activity at 100 nM using KTFCGTPEYLAP as substrate after 40 mins in presence of [gamma33P]-ATP by scintillation counting based radiometric assay relative to control.
Experiment [2] has as its target Receptor-type tyrosine-protein kinase FLT3 (Homo sapiens) (UniProt P36888). Kind of experiment: Inhibition of human FLT3 (564 to end residues) assessed as residual activity at 100 nM using EAIYAAPFAKKK as substrate after 40 mins in presence of [gamma33P]-ATP by scintillation counting based radiometric assay relative to control.
Experiment [3] concerns the target T1, Tyrosine-protein kinase JAK3 (Homo sapiens) (UniProt P52333).
T1 sequence (whole entry): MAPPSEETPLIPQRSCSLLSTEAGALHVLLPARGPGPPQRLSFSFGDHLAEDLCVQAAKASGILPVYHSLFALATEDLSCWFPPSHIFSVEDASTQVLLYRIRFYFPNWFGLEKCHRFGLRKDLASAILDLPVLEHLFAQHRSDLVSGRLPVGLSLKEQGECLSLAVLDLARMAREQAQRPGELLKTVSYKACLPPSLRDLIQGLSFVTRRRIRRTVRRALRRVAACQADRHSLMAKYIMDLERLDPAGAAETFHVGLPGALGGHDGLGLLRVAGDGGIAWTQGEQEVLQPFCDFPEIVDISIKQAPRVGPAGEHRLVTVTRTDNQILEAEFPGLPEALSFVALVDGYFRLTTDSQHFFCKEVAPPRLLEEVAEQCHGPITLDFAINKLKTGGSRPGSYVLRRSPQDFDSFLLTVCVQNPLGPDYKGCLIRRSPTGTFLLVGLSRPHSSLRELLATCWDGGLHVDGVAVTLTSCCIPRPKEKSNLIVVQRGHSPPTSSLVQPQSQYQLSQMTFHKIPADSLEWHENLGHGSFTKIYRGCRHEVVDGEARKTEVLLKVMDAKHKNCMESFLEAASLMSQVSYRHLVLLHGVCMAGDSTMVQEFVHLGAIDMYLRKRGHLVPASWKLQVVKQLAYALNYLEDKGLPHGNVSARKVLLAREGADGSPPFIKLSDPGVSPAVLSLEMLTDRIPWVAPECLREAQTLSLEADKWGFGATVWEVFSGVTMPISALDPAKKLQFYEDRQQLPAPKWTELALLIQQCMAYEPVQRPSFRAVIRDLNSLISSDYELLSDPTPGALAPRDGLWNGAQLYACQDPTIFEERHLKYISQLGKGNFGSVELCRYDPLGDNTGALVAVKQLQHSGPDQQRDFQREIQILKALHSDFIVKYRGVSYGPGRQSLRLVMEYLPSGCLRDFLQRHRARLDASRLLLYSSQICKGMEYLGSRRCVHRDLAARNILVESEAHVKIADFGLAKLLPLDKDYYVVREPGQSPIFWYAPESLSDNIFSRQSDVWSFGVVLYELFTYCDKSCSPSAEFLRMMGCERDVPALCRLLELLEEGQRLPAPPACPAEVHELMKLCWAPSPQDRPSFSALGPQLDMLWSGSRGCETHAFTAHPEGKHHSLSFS
The experiment is described as follows: Inhibition of human JAK3 (781 to end residues) assessed as residual activity at 100 nM using GGEEEEYFELVKK as substrate after 40 mins in presence of [gamma33P]-ATP by scintillation counting based radiometric assay relative to control.

Experiment [4] addresses Tyrosine-protein kinase JAK1 (Homo sapiens, UniProt P23458). The experiment is described as follows: Inhibition of human JAK1 (866 to end residues) assessed as residual activity at 100 nM using GEEPLYWSFPAKK as substrate after 40 mins in presence of [gamma33P]-ATP by scintillation counting based radiometric assay relative to control.
Experiment [5] deals with MOLM-13. The experiment is described as follows: Antiproliferative activity against FLT3-ITD-positive human MOLM13 cells assessed as reduction in cell growth after 72 hrs by MTT assay. The class given is functional, cell-based. Conditions: MOLM-13, 72 h.
In experiment [6] the test system is MV4-11. The experiment is described as follows: Antiproliferative activity against FLT3-ITD-positive human MV4-11 cells assessed as reduction in cell growth after 72 hrs by MTT assay. The class given is functional, cell-based. The settings on record: MV4-11, 72 h.

Sequence of Tyrosine-protein kinase JAK1 (P23458 whole entry): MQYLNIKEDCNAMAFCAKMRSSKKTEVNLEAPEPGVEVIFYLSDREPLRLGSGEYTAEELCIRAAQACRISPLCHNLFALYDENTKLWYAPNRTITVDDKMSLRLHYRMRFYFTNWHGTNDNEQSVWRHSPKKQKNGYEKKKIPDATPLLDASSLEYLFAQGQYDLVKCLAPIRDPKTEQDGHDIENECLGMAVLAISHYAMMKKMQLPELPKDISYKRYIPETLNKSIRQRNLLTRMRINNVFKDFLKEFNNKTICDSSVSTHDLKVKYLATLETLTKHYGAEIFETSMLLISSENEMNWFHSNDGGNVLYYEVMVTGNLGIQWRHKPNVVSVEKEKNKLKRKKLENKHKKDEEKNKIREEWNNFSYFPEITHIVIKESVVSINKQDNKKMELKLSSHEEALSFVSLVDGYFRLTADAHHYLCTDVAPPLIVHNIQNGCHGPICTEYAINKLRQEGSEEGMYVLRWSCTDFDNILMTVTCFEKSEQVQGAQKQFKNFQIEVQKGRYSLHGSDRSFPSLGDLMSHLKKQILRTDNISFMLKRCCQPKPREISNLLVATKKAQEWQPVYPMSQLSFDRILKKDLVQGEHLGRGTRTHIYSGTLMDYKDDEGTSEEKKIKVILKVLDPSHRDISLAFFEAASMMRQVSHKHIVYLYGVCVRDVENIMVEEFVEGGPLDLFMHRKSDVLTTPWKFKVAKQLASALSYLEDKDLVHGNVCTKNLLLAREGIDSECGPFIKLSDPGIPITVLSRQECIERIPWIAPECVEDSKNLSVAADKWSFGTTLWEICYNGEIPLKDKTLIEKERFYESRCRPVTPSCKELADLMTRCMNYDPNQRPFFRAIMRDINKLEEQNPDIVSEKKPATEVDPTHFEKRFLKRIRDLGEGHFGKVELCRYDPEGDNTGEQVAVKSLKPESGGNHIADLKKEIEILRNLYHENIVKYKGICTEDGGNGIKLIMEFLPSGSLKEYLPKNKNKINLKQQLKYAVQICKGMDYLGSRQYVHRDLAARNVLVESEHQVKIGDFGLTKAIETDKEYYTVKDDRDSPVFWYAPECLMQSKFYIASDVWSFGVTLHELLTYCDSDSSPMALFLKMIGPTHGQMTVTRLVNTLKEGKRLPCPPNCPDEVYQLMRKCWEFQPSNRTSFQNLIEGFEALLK
Sequence of Tyrosine-protein kinase JAK2 (O60674 whole entry): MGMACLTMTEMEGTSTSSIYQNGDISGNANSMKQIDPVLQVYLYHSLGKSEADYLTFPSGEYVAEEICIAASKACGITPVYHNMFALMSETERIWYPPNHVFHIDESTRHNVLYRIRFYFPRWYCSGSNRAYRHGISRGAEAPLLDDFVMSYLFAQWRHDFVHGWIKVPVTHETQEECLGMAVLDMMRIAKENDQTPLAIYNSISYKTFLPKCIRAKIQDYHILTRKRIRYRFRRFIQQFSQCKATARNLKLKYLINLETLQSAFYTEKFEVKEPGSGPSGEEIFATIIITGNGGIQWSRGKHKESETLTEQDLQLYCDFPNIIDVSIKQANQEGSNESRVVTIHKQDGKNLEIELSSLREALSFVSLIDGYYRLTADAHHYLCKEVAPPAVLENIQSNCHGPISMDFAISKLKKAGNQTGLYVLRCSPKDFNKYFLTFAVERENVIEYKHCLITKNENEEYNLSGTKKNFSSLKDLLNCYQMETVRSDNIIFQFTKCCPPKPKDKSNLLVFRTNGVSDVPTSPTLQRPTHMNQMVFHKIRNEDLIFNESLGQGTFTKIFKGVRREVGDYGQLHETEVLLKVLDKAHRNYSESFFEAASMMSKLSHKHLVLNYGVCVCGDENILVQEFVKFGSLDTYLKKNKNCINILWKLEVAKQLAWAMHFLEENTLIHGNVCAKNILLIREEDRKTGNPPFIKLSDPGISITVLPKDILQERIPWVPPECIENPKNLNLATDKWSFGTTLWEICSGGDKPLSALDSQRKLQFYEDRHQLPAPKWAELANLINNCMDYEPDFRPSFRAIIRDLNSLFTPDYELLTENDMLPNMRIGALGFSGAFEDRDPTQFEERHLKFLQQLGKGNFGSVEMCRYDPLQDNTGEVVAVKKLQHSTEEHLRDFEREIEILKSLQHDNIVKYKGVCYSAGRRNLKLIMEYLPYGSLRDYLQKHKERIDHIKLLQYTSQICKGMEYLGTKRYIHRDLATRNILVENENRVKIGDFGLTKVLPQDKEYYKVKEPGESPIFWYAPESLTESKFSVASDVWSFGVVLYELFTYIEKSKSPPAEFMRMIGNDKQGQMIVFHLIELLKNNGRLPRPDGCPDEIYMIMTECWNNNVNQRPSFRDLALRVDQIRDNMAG
Sequence of Receptor-type tyrosine-protein kinase FLT3 (Homo sapiens) (P36888 whole entry): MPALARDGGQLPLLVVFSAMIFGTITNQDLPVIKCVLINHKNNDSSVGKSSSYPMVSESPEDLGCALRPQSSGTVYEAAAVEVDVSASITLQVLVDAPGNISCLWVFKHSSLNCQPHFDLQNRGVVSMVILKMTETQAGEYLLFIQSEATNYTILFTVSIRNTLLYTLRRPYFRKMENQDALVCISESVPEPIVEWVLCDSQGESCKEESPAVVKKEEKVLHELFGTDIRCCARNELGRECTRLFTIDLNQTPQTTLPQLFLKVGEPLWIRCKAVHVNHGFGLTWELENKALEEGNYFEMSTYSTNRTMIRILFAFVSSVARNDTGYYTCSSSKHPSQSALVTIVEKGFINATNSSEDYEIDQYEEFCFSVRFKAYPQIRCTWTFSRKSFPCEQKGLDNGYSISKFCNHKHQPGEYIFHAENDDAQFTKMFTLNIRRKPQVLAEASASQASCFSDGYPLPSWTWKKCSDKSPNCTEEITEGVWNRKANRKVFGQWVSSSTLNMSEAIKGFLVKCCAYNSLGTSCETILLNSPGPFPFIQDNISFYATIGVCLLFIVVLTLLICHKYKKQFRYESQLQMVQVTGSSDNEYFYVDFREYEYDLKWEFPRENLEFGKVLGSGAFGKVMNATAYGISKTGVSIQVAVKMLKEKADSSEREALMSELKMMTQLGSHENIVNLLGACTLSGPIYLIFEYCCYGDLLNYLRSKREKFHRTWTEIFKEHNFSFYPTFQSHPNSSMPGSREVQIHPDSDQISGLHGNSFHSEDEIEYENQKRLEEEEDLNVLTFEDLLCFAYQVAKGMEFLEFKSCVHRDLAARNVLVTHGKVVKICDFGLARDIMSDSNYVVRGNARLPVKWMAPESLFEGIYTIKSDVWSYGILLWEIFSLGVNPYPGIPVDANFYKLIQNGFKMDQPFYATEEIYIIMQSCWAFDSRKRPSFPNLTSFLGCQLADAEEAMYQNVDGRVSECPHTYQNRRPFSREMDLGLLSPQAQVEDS

Take `CCCN(C)C1CCN(c2ccc(Nc3ncc(C)c(-c4cnn(C(C)C)c4)n3)cc2F)CC1`: the Activity in experiment [1] came out at 3%; in experiment [2], 6%; in experiment [3], 9%; in experiment [4] it was 24%. The values for the negative-log IC50 (pIC50) in experiment [5] and in experiment [6] were 7.33 and 8.14, respectively.

As for `CCCn1cc(-c2nc(Nc3ccc(N4CCN(C)CC4)c(F)c3)ncc2F)cn1`, the Activity came out at 19% in experiment [1], 14% in experiment [2], 69% in experiment [3] and 48% in experiment [4]. For the same compound, the figures for the pIC50 in experiment [5] and in experiment [6] were 6.31 and 7.24, respectively.

For the compound `CCN(CCN1CCOCC1)C1CCN(c2ccc(Nc3ncc(C)c(-c4cnn(C(C)C)c4)n3)cc2F)CC1`, the Activity in experiment [1] is 11%; in experiment [2], 7%; in experiment [3], 33%; in experiment [4] it was 23%. For the same compound, the results for the pIC50 in experiment [5] and in experiment [6] were 6.82 and 7.37, respectively.

Values taken from ChEMBL document CHEMBL4321837, “Discovery of Potent and Orally Effective Dual Janus Kinase 2/FLT3 Inhibitors for the Treatment of Acute Myelogenous Leukemia and Myeloproliferative Neoplasms” (J Med Chem, 2019).
